Assay results: ChEMBL document CHEMBL1145159 (J Med Chem, 2005)
Values joined by “and” are separate entries in the source; they are usually repeats but may differ in a detail not shown here. Equal values may be shown once. Peptide text beside a SMILES is read from it.

Legend:
[1] = biological target: T1, Neuronal acetylcholine receptor; alpha2/beta4 (Homo sapiens, UniProt P30926+Q15822); test: Maximal response against Nicotinic acetylcholine receptor alpha2-beta4; assay type: protein-complex assay
T1 sequence (P30926 whole entry): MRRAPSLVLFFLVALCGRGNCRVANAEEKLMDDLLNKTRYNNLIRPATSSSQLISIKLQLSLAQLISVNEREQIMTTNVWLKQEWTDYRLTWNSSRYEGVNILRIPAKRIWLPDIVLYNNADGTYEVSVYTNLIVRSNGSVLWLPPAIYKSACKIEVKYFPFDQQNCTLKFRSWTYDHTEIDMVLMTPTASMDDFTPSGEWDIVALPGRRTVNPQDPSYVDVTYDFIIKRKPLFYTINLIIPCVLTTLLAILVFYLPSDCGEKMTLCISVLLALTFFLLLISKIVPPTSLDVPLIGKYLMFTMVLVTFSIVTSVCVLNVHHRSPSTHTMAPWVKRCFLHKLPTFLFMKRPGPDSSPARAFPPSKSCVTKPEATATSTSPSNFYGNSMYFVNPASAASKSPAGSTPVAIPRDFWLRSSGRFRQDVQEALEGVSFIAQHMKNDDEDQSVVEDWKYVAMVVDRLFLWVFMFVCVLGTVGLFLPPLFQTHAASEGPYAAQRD
T1 sequence (Q15822 whole entry): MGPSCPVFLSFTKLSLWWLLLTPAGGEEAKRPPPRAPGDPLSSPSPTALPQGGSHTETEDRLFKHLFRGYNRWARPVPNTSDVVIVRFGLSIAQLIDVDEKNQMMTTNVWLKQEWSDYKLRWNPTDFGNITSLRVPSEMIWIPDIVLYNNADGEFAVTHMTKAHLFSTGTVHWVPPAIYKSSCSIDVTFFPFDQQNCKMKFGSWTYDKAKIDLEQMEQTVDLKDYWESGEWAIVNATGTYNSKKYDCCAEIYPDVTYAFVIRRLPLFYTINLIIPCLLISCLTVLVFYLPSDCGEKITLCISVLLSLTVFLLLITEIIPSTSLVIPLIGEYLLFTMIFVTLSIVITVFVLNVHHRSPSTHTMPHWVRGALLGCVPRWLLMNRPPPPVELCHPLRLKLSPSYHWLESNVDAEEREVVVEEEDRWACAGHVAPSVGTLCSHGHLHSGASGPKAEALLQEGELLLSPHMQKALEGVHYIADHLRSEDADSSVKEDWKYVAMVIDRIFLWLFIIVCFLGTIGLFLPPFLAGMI

[2] = biological target: T2, Neuronal acetylcholine receptor; alpha3/beta4 (Homo sapiens, UniProt P30926+P32297); test: Maximal response against Nicotinic acetylcholine receptor alpha3-beta4; assay type: protein-complex assay
T2 sequence (P30926 whole entry): as the sequence (P30926 whole entry) above
T2 sequence (P32297 whole entry): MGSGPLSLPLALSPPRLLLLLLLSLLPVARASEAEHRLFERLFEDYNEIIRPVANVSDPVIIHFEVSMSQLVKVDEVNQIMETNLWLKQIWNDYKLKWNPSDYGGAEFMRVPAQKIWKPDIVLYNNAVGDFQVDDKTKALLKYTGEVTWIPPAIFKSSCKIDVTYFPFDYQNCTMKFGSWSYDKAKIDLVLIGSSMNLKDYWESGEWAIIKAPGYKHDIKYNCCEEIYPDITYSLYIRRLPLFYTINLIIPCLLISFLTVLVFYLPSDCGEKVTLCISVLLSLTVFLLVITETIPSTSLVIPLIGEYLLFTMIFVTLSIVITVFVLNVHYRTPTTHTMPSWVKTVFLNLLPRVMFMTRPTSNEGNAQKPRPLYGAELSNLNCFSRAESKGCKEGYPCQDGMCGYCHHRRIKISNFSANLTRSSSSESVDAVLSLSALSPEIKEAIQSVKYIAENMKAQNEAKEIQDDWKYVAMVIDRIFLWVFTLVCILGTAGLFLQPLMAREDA

[3] = biological target: T3, Neuronal acetylcholine receptor; alpha3/beta2 (Homo sapiens, UniProt P17787+P32297); test: Maximal response against Nicotinic acetylcholine receptor alpha3-beta2; assay type: protein-complex assay
T3 sequence (P17787 whole entry): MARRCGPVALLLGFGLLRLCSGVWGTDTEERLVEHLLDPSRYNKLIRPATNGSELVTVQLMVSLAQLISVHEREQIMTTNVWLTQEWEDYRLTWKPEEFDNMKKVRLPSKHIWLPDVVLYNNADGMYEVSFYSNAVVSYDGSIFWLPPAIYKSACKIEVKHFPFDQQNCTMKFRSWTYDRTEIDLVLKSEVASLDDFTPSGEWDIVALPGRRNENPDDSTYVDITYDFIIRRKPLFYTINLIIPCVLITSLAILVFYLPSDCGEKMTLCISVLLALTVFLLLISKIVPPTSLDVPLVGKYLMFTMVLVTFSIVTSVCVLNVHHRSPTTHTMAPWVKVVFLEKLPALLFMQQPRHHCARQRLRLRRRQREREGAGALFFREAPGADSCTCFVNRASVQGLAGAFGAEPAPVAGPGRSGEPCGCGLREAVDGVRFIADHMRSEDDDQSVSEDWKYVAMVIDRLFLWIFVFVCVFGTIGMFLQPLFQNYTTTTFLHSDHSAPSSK
T3 sequence (P32297 whole entry): as the sequence (P32297 whole entry) above

[4] = biological target: T4, Neuronal acetylcholine receptor; alpha4/beta2 (Homo sapiens, UniProt P17787+P43681); test: Maximal response against Nicotinic acetylcholine receptor alpha4-beta2; assay type: protein-complex assay
T4 sequence (P17787 whole entry): as the sequence (P17787 whole entry) above
T4 sequence (P43681 whole entry): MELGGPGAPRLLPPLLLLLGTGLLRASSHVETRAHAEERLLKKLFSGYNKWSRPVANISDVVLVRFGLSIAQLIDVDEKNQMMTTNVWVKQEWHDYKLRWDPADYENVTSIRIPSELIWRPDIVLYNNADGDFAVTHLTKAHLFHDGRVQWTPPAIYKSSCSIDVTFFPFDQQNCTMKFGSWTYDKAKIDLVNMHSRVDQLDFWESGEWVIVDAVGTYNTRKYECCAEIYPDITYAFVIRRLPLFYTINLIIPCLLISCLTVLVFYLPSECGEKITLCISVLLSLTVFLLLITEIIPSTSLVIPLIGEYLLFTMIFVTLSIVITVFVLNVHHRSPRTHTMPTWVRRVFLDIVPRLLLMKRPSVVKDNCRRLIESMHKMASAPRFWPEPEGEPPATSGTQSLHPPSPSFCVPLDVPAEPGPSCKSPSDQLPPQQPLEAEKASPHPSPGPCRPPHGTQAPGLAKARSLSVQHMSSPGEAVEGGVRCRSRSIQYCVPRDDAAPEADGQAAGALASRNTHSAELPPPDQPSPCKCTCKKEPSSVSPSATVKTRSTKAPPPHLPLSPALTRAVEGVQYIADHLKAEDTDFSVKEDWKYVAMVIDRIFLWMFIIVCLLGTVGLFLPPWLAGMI

[5] = biological target: T5, Neuronal acetylcholine receptor; alpha4/beta4 (Homo sapiens, UniProt P30926+P43681); test: Maximal response against Nicotinic acetylcholine receptor alpha4-beta4; assay type: protein-complex assay
T5 sequence (P30926 whole entry): as the sequence (P30926 whole entry) above
T5 sequence (P43681 whole entry): as the sequence (P43681 whole entry) above

[6] = biological target: T6, Neuronal acetylcholine receptor subunit alpha-7 (Homo sapiens, UniProt P36544); test: Effective concentration against Nicotinic acetylcholine receptor alpha 7
T6 sequence (P36544 whole entry): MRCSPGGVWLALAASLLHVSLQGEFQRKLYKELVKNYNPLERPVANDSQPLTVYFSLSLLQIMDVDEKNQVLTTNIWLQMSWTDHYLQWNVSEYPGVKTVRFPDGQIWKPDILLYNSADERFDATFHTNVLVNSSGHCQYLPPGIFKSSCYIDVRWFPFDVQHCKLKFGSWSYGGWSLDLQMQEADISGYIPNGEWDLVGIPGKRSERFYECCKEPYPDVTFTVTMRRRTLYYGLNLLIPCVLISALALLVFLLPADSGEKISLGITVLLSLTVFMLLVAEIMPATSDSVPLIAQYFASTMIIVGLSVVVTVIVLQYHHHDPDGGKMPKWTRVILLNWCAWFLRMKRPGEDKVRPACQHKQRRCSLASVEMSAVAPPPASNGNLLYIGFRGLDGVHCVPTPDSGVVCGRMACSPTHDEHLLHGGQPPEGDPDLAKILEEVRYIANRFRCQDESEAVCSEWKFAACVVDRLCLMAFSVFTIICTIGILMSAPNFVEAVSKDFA

[7] = biological target: T4, Neuronal acetylcholine receptor; alpha4/beta2; test: (§1) Inhibitory concentration against Nicotinic acetylcholine receptor alpha4-beta2; assay type: protein-complex assay
[8] = biological target: T3, Neuronal acetylcholine receptor; alpha3/beta2; test: Inhibitory concentration against Nicotinic acetylcholine receptor alpha3-beta2; assay type: protein-complex assay
[9] = biological target: T6, Neuronal acetylcholine receptor subunit alpha-7; test: Inhibitory concentration against Nicotinic acetylcholine receptor alpha 7
[10] = biological target: T2, Neuronal acetylcholine receptor; alpha3/beta4; test: Inhibitory concentration against Nicotinic acetylcholine receptor alpha3-beta4; assay type: protein-complex assay
[11] = biological target: T4, Neuronal acetylcholine receptor; alpha4/beta2; test: as §1; assay type: protein-complex assay; remark: listed apart in the source
[12] = biological target: Neuronal acetylcholine receptor subunit alpha-7 (Rattus norvegicus) (UniProt Q05941); test: Maximal response against Nicotinic acetylcholine receptor alpha 7
Neuronal acetylcholine receptor subunit alpha-7 (Rattus norvegicus), sequence (Q05941 whole entry): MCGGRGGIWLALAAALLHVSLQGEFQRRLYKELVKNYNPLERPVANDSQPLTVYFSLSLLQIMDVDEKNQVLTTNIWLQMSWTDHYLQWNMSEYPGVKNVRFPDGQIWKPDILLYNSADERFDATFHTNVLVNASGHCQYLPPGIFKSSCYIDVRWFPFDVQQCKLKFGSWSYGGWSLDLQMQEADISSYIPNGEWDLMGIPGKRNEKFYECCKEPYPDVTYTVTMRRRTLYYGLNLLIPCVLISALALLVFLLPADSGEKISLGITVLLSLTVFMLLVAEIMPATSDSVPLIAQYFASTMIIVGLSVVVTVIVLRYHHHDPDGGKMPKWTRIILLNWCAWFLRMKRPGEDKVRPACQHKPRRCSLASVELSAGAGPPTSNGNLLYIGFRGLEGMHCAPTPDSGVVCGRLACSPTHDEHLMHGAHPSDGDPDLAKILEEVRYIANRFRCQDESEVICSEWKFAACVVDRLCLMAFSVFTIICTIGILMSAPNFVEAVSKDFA

[13] = biological target: T1, Neuronal acetylcholine receptor; alpha2/beta4; test: Maximal response against Nicotinic acetylcholine receptor alpha2-beta4 expressed in HEK293 cells; assay type: cell-based
[14] = biological target: T4, Neuronal acetylcholine receptor; alpha4/beta2; test: Maximal response against Nicotinic acetylcholine receptor alpha4-beta2 expressed in HEK293 cells; assay type: cell-based
[15] = biological target: T3, Neuronal acetylcholine receptor; alpha3/beta2; test: Maximal response against Nicotinic acetylcholine receptor alpha3-beta2 expressed in HEK293 cells; assay type: cell-based
[16] = Effective concentration against Nicotinic acetylcholine receptor alpha2-beta4 expressed in xenopus oocytes; assay type: cell-based; conditions: oocyte
[17] = biological target: T3, Neuronal acetylcholine receptor; alpha3/beta2; test: Effective concentration against Nicotinic acetylcholine receptor alpha3-beta2 expressed in xenopus oocytes; assay type: cell-based, Oocyte
[18] = Effective concentration against Nicotinic acetylcholine receptor alpha3-beta4 expressed in xenopus oocytes; assay type: cell-based; conditions: oocyte
[19] = Effective concentration against Nicotinic acetylcholine receptor alpha4-beta4 expressed in xenopus oocytes; assay type: cell-based; conditions: oocyte
[20] = Effective concentration against Nicotinic acetylcholine receptor alpha4-beta2 expressed in xenopus oocytes; assay type: cell-based; conditions: oocyte
[21] = biological target: T4, Neuronal acetylcholine receptor; alpha4/beta2; test: Ki or IC50 concentration against Nicotinic acetylcholine receptor alpha4-beta2 expressed in xenopus oocytes; assay type: cell-based; conditions: Oocyte
[22] = biological target: T5, Neuronal acetylcholine receptor; alpha4/beta4; test: Ki or IC50 concentration against Nicotinic acetylcholine receptor alpha4-beta4 expressed in xenopus oocytes; assay type: cell-based; conditions: Oocyte
[23] = biological target: T6, Neuronal acetylcholine receptor subunit alpha-7; test: Inhibitory concentration against Nicotinic acetylcholine receptor alpha-7 expressed in xenopus oocytes; assay type: cell-based; conditions: xenopus oocyte
[24] = Inhibitory concentration against Nicotinic acetylcholine receptor alpha2-beta4 expressed in xenopus oocytes; assay type: cell-based; conditions: oocyte
[25] = Inhibitory concentration against Nicotinic acetylcholine receptor alpha3-beta4 expressed in xenopus oocytes; assay type: cell-based; conditions: oocyte
[26] = biological target: T1, Neuronal acetylcholine receptor; alpha2/beta4; test: Inhibitory concentration against Nicotinic acetylcholine receptor alpha2-beta4; assay type: protein-complex assay
[27] = biological target: T4, Neuronal acetylcholine receptor; alpha4/beta2; test: Effective concentration against Nicotinic acetylcholine receptor alpha4-beta2; assay type: protein-complex assay
[28] = biological target: T1, Neuronal acetylcholine receptor; alpha2/beta4; test: Effective concentration against Nicotinic acetylcholine receptor alpha2-beta4; assay type: protein-complex assay
[29] = biological target: T2, Neuronal acetylcholine receptor; alpha3/beta4; test: Effective concentration against Nicotinic acetylcholine receptor alpha3-beta4; assay type: protein-complex assay
[30] = biological target: T3, Neuronal acetylcholine receptor; alpha3/beta2; test: Effective concentration against Nicotinic acetylcholine receptor alpha3-beta2; assay type: protein-complex assay
[31] = biological target: T5, Neuronal acetylcholine receptor; alpha4/beta4; test: Effective concentration against Nicotinic acetylcholine receptor alpha4-beta4; assay type: protein-complex assay

CN1CCC[C@H]1CCSc1ccc(O)cc1
Rmax [1]: 102% | Rmax [2]: 71% | Rmax [3]: 9% | Rmax [4]: 13% | Rmax [5]: 62% | EC50 [6]: > 10 µM

C[C@H](NC(=O)[C@H](C)NC(=O)[C@H](CS)NC(=O)[C@H](C)NC(=O)[C@@H]1CCCN1C(=O)[C@H](Cc1c[nH]cn1)NC(=O)[C@H](CO)NC(=O)[C@H](CS)NC(=O)[C@H](CS)NC(=O)CNC(=O)CN)C(=O)N[C@@H](CC(N)=O)C(=O)N[C@@H](CC(N)=O)C(=O)N[C@@H](CCC(N)=O)C(=O)N[C@@H](CC(=O)O)C(=O)N[C@@H](Cc1ccc(O)cc1)C(=O)N[C@@H](CS)C(N)=O
IC50 [7]: 0.0003 µM | IC50 [8]: 0.0003 µM | IC50 [9]: 0.0003 µM | IC50 [10]: 0.0003 µM

c1cncc(C2CC3CCC2N3)c1 (stereo not drawn)
Rmax [2]: 61% | Rmax [4]: 112% | Rmax [5]: 147%

CCOc1cncc(/C=C/CCN)c1
Rmax [2]: 55% | Rmax [5]: 16%

CC(NC(C)(C)C)C(=O)c1cccc(Cl)c1 (stereo not drawn) [BUPROPION]
IC50 [9]: 50 µM

CN1CCC[C@H]1COc1cnc(Cl)c(-c2ccc(Cl)cc2)c1
IC50 [9]: 8.5 µM | IC50 [10]: 9.2 µM | Concentration [11]: 0.96 µM

O=c1c(Br)ccc2n1C[C@@H]1CNC[C@H]2C1
Rmax [4]: 23% | Rmax [12]: 100% | Rmax [5]: 70%

Clc1ccc(C2CC3CCC2N3)cn1 (stereo not drawn)
Rmax [13]: 115% | Rmax [14]: 117% | Rmax [15]: 163% | Rmax [12]: 97% | Rmax [5]: 99% and 85%

C[C@H](NC(=O)[C@H](Cc1ccccc1)NC(=O)[C@H](CS)NC(=O)[C@@H]1CCCN1C(=O)[C@@H]1CCCN1C(=O)[C@H](Cc1ccc(O)cc1)NC(=O)[C@H](CO)NC(=O)[C@H](CS)NC(=O)[C@H](CS)NC(=O)CN)C(=O)N[C@H](C(=O)N[C@@H](CC(N)=O)C(=O)N[C@@H](CO)C(=O)NCC(=O)N[C@@H](Cc1ccc(O)cc1)C(=O)N[C@@H](CS)C(N)=O)[C@@H](C)O
IC50 [10]: > 0.75 µM

CC[C@H](C)[C@H](NC(=O)[C@H](Cc1c[nH]cn1)NC(=O)[C@H](CCC(N)=O)NC(=O)[C@H](CC(N)=O)NC(=O)[C@H](CC(N)=O)NC(=O)CNC(=O)[C@H](C)NC(=O)[C@H](CS)NC(=O)[C@H](C)NC(=O)[C@@H]1CCCN1C(=O)[C@H](Cc1c[nH]cn1)NC(=O)[C@H](CO)NC(=O)[C@H](CS)NC(=O)[C@H](CS)NC(=O)CN)C(=O)N[C@@H](CS)C(N)=O
IC50 [7]: 0.0011 µM | IC50 [8]: 0.0011 µM | IC50 [9]: 0.0011 µM

O=c1cccc2n1C[C@@H]1CNC[C@H]2C1 [CYTISINICLINE]
EC50 [16]: 39 µM | Rmax [1]: 58% | EC50 [17]: 67 µM | Rmax [3]: 23 µM | EC50 [18]: 72 µM | Rmax [4]: 11% and 2% | EC50 [19]: 0.9 µM | Rmax [14]: 42% | Rmax [15]: 55% | Rmax [12]: 90% and 105% | EC50 [20]: 2.7 µM

CO[C@@H]1CC=C2CCN3CCC4=C(CC(=O)OC4)[C@@]23C1
Concentration [21]: 0.11 µM | Concentration [22]: 0.01 µM | IC50 [9]: 98 µM | Concentration [23]: 20 µM | IC50 [24]: 3.6 µM | IC50 [10]: 43 µM and 240 µM | IC50 [25]: 14 µM | Concentration [11]: 2.7 µM

c1cncc(OC[C@@H]2CCN2)c1
Rmax [2]: 100% | Rmax [4]: 185% | Rmax [12]: 100%

CC(C)C[C@H](NC(=O)[C@H](C)NC(=O)[C@H](CS)NC(=O)[C@@H]1CCCN1C(=O)[C@@H]1CCCN1C(=O)[C@H](CC(C)C)NC(=O)[C@H](CO)NC(=O)[C@H](CS)NC(=O)[C@H](CS)NC(=O)CN)C(=O)N[C@@H](CO)C(=O)N[C@@H](CC(N)=O)C(=O)N1CCC[C@H]1C(=O)N[C@@H](CC(=O)O)C(=O)N[C@@H](Cc1ccc(O)cc1)C(=O)N[C@@H](CS)C(N)=O (H-GCCSLPPCALSNPDYC-NH2)
IC50 [8]: 0.061 µM | IC50 [9]: 0.061 µM

C[C@H](NC(=O)[C@H](Cc1ccccc1)NC(=O)[C@H](CS)NC(=O)[C@@H]1CCCN1C(=O)[C@@H]1CCCN1C(=O)[C@H](Cc1ccc(O)cc1)NC(=O)[C@H](CO)NC(=O)[C@H](CS)NC(=O)[C@H](CS)NC(=O)CN)C(=O)N[C@H](C(=O)N[C@@H](CC(N)=O)C(=O)N[C@@H](CO)C(=O)N[C@@H](CC(=O)O)C(=O)N[C@@H](Cc1ccc(O)cc1)C(=O)N[C@@H](CS)C(N)=O)[C@@H](C)O
IC50 [10]: > 0.75 µM

CCN1C[C@]2(COC(=O)c3ccccc3N3C(=O)C[C@H](C)C3=O)CC[C@H](OC)[C@@]34[C@@H]5C[C@H]6[C@H](OC)[C@@H]5[C@](O)(C[C@@H]6OC)[C@](O)([C@@H](OC)[C@H]23)[C@@H]14 [METHYLLYCACONITINE]
IC50 [26]: > 1 µM | IC50 [8]: > 1 µM | IC50 [9]: > 1 µM | IC50 [10]: > 1 µM

O=C1NCC2(CN3CCC2CC3)O1 (stereo not drawn)
EC50 [17]: > 1000 µM | EC50 [18]: > 1000 µM | Rmax [12]: 78% | EC50 [20]: > 2000 µM

CN1CCC[C@H]1c1cccnc1 [NICOTINE]
Rmax [13]: 100% | EC50 [16]: 21 µM | Rmax [1]: 114% | EC50 [18]: 80 µM | Rmax [4]: 73% | EC50 [19]: 5 µM | Rmax [14]: 3.5% | Rmax [15]: 100% | Rmax [12]: 74% and 97% | EC50 [20]: 5.5 µM | Rmax [5]: 100% and 85% and 108%

C#Cc1cncc([C@@H]2CCCN2C)c1 [ALTINICLINE]
EC50 [27]: 0.32 µM | EC50 [28]: 3.2 µM | EC50 [29]: 10 µM | EC50 [30]: 3.2 µM | Rmax [1]: 49% | Rmax [2]: 52% | EC50 [31]: 2 µM | Rmax [4]: 49% | Rmax [5]: 26% | EC50 [6]: > 10 µM

Clc1ccc(OC[C@@H]2CCN2)cn1
Rmax [2]: 166% | Rmax [4]: 161% | Rmax [12]: 85%
